Results from article PMC5218480 (PLoS ONE, 2017).

Tested on: MV-4-11 cells
Experiment: Gene expression microarray analysis (Affymetrix PrimeView) and GSEA
Format: cell-based, human
Set-up: RFU PODN (11730768_x_at) / Fold change /veh PODN (11730768_x_at) / RFU LINC00158 (11744669_a_at) / Fold change /veh LINC00158 (11744669_a_at) / RFU DUSP10 (11751237_a_at) / Fold change /veh DUSP10 (11751237_a_at) / RFU ID3 (11757404_x_at) / Fold change /veh ID3 (11757404_x_at) / RFU PLEKHG5 (11737974_s_at) / Fold change /veh PLEKHG5 (11737974_s_at) / RFU LRRC4B (11730491_at) / Fold change /veh LRRC4B (11730491_at) / RFU GIMAP4 (11747438_a_at) / Fold change /veh GIMAP4 (11747438_a_at) / RFU KRT8 (11758183_x_at) / Fold change /veh KRT8 (11758183_x_at) / RFU CNN1 (11734310_a_at) / Fold change /veh CNN1 (11734310_a_at) / RFU VPS37D (11726825_at) / Fold change /veh VPS37D (11726825_at) / RFU C10orf10 (11716522_x_at) / Fold change /veh C10orf10 (11716522_x_at) / RFU KIR2DL2 /// KIR2DL4 /// KIR2DL5A /// KIR2DL5B /// KIR2DS1 /// KIR2DS2 /// KIR2DS3 /// KIR2DS4 /// KIR3DL3 /// KIR3DL3 /// KIR3DS1 (11738374_at) / Fold change /veh KIR2DL2 /// KIR2DL4 /// KIR2DL5A /// KIR2DL5B /// KIR2DS1 /// KIR2DS2 /// KIR2DS3 /// KIR2DS4 /// KIR3DL3 /// KIR3DL3 /// KIR3DS1 (11738374_at) / RFU C1QL1 (11718748_at) / Fold change /veh C1QL1 (11718748_at) / RFU TMPRSS4 (11747572_a_at) / Fold change /veh TMPRSS4 (11747572_a_at) / RFU HAMP (11756126_x_at) / Fold change /veh HAMP (11756126_x_at) / RFU RNFT2 (11725882_a_at) / Fold change /veh RNFT2 (11725882_a_at) / RFU NR4A2 (11747474_a_at) / Fold change /veh NR4A2 (11747474_a_at) / RFU ABCC12 (11746883_a_at) / Fold change /veh ABCC12 (11746883_a_at) / RFU TMEM136 (11760407_x_at) / Fold change /veh TMEM136 (11760407_x_at) / RFU CLDN22 /// WWC2 (11732394_at) / Fold change /veh CLDN22 /// WWC2 (11732394_at) / RFU HLA-DPB1 (11760878_x_at) / Fold change /veh HLA-DPB1 (11760878_x_at) / RFU SPINT1 (11716480_a_at) / Fold change /veh SPINT1 (11716480_a_at) / RFU GAP43 (11754022_s_at) / Fold change /veh GAP43 (11754022_s_at) / RFU A4GNT (11735810_at) / Fold change /veh A4GNT (11735810_at) / RFU PRB3 (11715151_x_at) / Fold change /veh PRB3 (11715151_x_at) / RFU TUBB4B (11761932_at) / Fold change /veh TUBB4B (11761932_at) / RFU CAPN14 (11732068_a_at) / Fold change /veh CAPN14 (11732068_a_at) / RFU TMCC2 (11721928_a_at) / Fold change /veh TMCC2 (11721928_a_at) / RFU IRGQ (11745062_a_at) / Fold change /veh IRGQ (11745062_a_at) / RFU FAM174B (11720279_a_at) / Fold change /veh FAM174B (11720279_a_at) / RFU TMPRSS4 (11748680_a_at) / Fold change /veh TMPRSS4 (11748680_a_at) / RFU FAM212B (11763350_a_at) / Fold change /veh FAM212B (11763350_a_at) / RFU PLEKHG5 (11743358_a_at) / Fold change /veh PLEKHG5 (11743358_a_at) / RFU ZSCAN30 (11745921_a_at) / Fold change /veh ZSCAN30 (11745921_a_at) / RFU CMKLR1 (11741424_a_at) / Fold change /veh CMKLR1 (11741424_a_at) / RFU LOC101060620 /// MAPK8IP1 (11723275_at) / Fold change /veh LOC101060620 /// MAPK8IP1 (11723275_at) / RFU SPTSSB (11747773_x_at) / Fold change /veh SPTSSB (11747773_x_at) / RFU PRSS12 (11739890_at) / Fold change /veh PRSS12 (11739890_at) / RFU BIN1 (11741810_x_at) / Fold change /veh BIN1 (11741810_x_at) / RFU WNT11 (11732464_a_at) / Fold change /veh WNT11 (11732464_a_at) / RFU C10orf10 (11716521_a_at) / Fold change /veh C10orf10 (11716521_a_at) / RFU C5orf56 (11738089_at) / Fold change /veh C5orf56 (11738089_at) / RFU CYB561 (11721691_x_at) / Fold change /veh CYB561 (11721691_x_at) / RFU ANKRD19P (11752326_a_at) / Fold change /veh ANKRD19P (11752326_a_at) / RFU OR2T12 /// OR2T33 /// OR2T8 (11738714_s_at) / Fold change /veh OR2T12 /// OR2T33 /// OR2T8 (11738714_s_at) / RFU VCAN (11748164_a_at) / Fold change /veh VCAN (11748164_a_at) / RFU JSRP1 (11732532_at) / Fold change /veh JSRP1 (11732532_at) / RFU KRTAP10-11 (11738290_x_at) / Fold change /veh KRTAP10-11 (11738290_x_at) / RFU MYO3A (11730013_a_at) / Fold change /veh MYO3A (11730013_a_at) / RFU EBF3 (11725865_a_at) / Fold change /veh EBF3 (11725865_a_at) / RFU CAMK2N1 (11719241_x_at) / Fold change /veh CAMK2N1 (11719241_x_at) / RFU C5orf56 (11738088_a_at) / Fold change /veh C5orf56 (11738088_a_at) / RFU OLFML3 (11715873_a_at) / Fold change /veh OLFML3 (11715873_a_at) / RFU LOC100653217 /// NTM (11731650_a_at) / Fold change /veh LOC100653217 /// NTM (11731650_a_at) / RFU MAPK11 (11762145_a_at) / Fold change /veh MAPK11 (11762145_a_at) / RFU FIZ1 (11724087_x_at) / Fold change /veh FIZ1 (11724087_x_at) / RFU OASL (11726364_x_at) / Fold change /veh OASL (11726364_x_at) / RFU SOX15 (11748057_x_at) / Fold change /veh SOX15 (11748057_x_at) / RFU CD79A (11719716_a_at) / Fold change /veh CD79A (11719716_a_at) / RFU HIST1H1D (11736915_at) / Fold change /veh HIST1H1D (11736915_at) / RFU CASKIN2 (11723855_a_at) / Fold change /veh CASKIN2 (11723855_a_at) / RFU LOC730098 (11760151_x_at) / Fold change /veh LOC730098 (11760151_x_at) / RFU OR4N2 (11742367_at) / Fold change /veh OR4N2 (11742367_at) / RFU PRRT2 (11749266_a_at) / Fold change /veh PRRT2 (11749266_a_at) / RFU SNX32 (11753110_a_at) / Fold change /veh SNX32 (11753110_a_at) / RFU CDHR5 (11726645_a_at) / Fold change /veh CDHR5 (11726645_a_at) / RFU RCAN1 (11760418_a_at) / Fold change /veh RCAN1 (11760418_a_at) / RFU FAM167A (11723789_a_at) / Fold change /veh FAM167A (11723789_a_at) / RFU FAM26E (11764081_at) / Fold change /veh FAM26E (11764081_at) / RFU ISYNA1 (11749810_s_at) / Fold change /veh ISYNA1 (11749810_s_at) / RFU ACY1 (11761880_at) / Fold change /veh ACY1 (11761880_at) / RFU 11764098_at / Fold change /veh 11764098_at / RFU SAMD14 (11745864_x_at) / Fold change /veh SAMD14 (11745864_x_at) / RFU NPB (11741838_a_at) / Fold change /veh NPB (11741838_a_at) / RFU TMPRSS6 (11731388_a_at) / Fold change /veh TMPRSS6 (11731388_a_at) / RFU KRTAP10-2 (11738614_at) / Fold change /veh KRTAP10-2 (11738614_at) / RFU ARHGAP8 /// PRR5-ARHGAP8 (11727945_x_at) / Fold change /veh ARHGAP8 /// PRR5-ARHGAP8 (11727945_x_at) / RFU KRTAP5-7 /// NADSYN1 (11734609_at) / Fold change /veh KRTAP5-7 /// NADSYN1 (11734609_at) / RFU RASL12 (11751679_a_at) / Fold change /veh RASL12 (11751679_a_at) / RFU CDKN2B (11736163_a_at) / Fold change /veh CDKN2B (11736163_a_at) / RFU PRF1 (11729649_at) / Fold change /veh PRF1 (11729649_at) / RFU, ZNF638 /// ZNF638-IT1 / Fold change vs veh, ZNF638 /// ZNF638-IT1 / RFU, PANK3 / Fold change vs veh, PANK3 / RFU, SH3YL1 / Fold change vs veh, SH3YL1 / RFU, ZEB2 / Fold change vs veh, ZEB2 / RFU, NRIP1 / Fold change vs veh, NRIP1 / RFU, PTTG1IP / Fold change vs veh, PTTG1IP / RFU, CAPN2 / Fold change vs veh, CAPN2 / RFU, MED14 / Fold change vs veh, MED14 / RFU, SNORA58 / Fold change vs veh, SNORA58 / RFU, C1orf63 / Fold change vs veh, C1orf63 / RFU, LRRFIP1 / Fold change vs veh, LRRFIP1 / RFU, NDUFAF7 / Fold change vs veh, NDUFAF7 / RFU, SLC12A2 / Fold change vs veh, SLC12A2 / RFU, IBTK / Fold change vs veh, IBTK / RFU, ESF1 / Fold change vs veh, ESF1 / Fold change vs veh, TMEM50B / RFU, TAOK1 / Fold change vs veh, TAOK1 / RFU, ACBD3 / Fold change vs veh, ACBD3 / RFU, TMA16 / Fold change vs veh, TMA16 / RFU, RWDD3 / Fold change vs veh, RWDD3 / RFU, BCAT1 / Fold change vs veh, BCAT1 / RFU, EDEM3 / Fold change vs veh, EDEM3 / RFU, TMEM33 / Fold change vs veh, TMEM33 / RFU, WDR75 / Fold change vs veh, WDR75 / RFU, AHCTF1 / Fold change vs veh, AHCTF1 / RFU, TFRC / Fold change vs veh, TFRC / RFU, ZDHHC17 / Fold change vs veh, ZDHHC17 / RFU, NOM1 / Fold change vs veh, NOM1 / RFU, ARL8B / Fold change vs veh, ARL8B / RFU, ZBTB11 / Fold change vs veh, ZBTB11 / RFU, TAMM41 / Fold change vs veh, TAMM41 / RFU, KIAA1704 /// LOC100996395 / Fold change vs veh, KIAA1704 /// LOC100996395 / RFU, ING1 / Fold change vs veh, ING1 / RFU, TRMT61B / Fold change vs veh, TRMT61B / RFU, FUBP3 / Fold change vs veh, FUBP3 / RFU, TP53 / Fold change vs veh, TP53 / RFU, TNKS2 / Fold change vs veh, TNKS2 / RFU, ZFP14 / Fold change vs veh, ZFP14 / RFU, ACTR2 / Fold change vs veh, ACTR2 / RFU, PPP3R1 / Fold change vs veh, PPP3R1 / RFU, PIK3R1 / Fold change vs veh, PIK3R1 / RFU, HNRNPA1 / Fold change vs veh, HNRNPA1 / RFU, RNF170 / Fold change vs veh, RNF170 / RFU, ZNF28 / Fold change vs veh, ZNF28 / RFU, RNGTT / Fold change vs veh, RNGTT / RFU, OGT / Fold change vs veh, OGT / RFU, BRD1 / Fold change vs veh, BRD1 / RFU, MARS / Fold change vs veh, MARS / RFU, ZNF655 / Fold change vs veh, ZNF655 / RFU, FAHD1 / Fold change vs veh, FAHD1 / RFU, BDP1 / Fold change vs veh, BDP1 / RFU, LRRCC1 / Fold change vs veh, LRRCC1 / RFU, ARID1A / Fold change vs veh, ARID1A / RFU, ZNF146 / Fold change vs veh, ZNF146 / RFU, ZNF330 / Fold change vs veh, ZNF330 / RFU, GPN3 / Fold change vs veh, GPN3 / RFU, C9orf123 / Fold change vs veh, C9orf123 / RFU, N4BP2L2 / Fold change vs veh, N4BP2L2 / RFU, ARFIP1 / Fold change vs veh, ARFIP1 / RFU, FAM179B / Fold change vs veh, FAM179B / RFU, BCL10 / Fold change vs veh, BCL10 / RFU, UHRF1BP1L / Fold change vs veh, UHRF1BP1L / RFU, BET1 / Fold change vs veh, BET1 / RFU, CNOT2 / Fold change vs veh, CNOT2 / RFU, ZNF268 / Fold change vs veh, ZNF268 / Fold change vs veh, ZNF507 / RFU, DGCR2 / Fold change vs veh, DGCR2 / RFU, WDSUB1 / Fold change vs veh, WDSUB1 / Fold change vs veh, HSP90B1 /// MIR3652 / RFU, ADSS / Fold change vs veh, ADSS / RFU, GK / Fold change vs veh, GK / RFU, ZNF148 / Fold change vs veh, ZNF148 / RFU, TAF9 / Fold change vs veh, TAF9 / RFU, SLC1A5 / Fold change vs veh, SLC1A5 / RFU, SLMO2 / Fold change vs veh, SLMO2 / RFU, ABCC4 / Fold change vs veh, ABCC4 / RFU, LOC101060439 /// RAP1B / Fold change vs veh, LOC101060439 /// RAP1B / RFU, RFX7 / Fold change vs veh, RFX7 / RFU, GTPBP10 / Fold change vs veh, GTPBP10 / RFU, CNEP1R1 / Fold change vs veh, CNEP1R1 / RFU, BIVM-ERCC5 /// ERCC5 / Fold change vs veh, BIVM-ERCC5 /// ERCC5 / RFU, ILF3 / Fold change vs veh, ILF3 / RFU 11762660_at / Fold change /veh 11762660_at / RFU VCAN (11757783_s_at) / Fold change /veh VCAN (11757783_s_at) / RFU DDX43 (11728927_at) / Fold change /veh DDX43 (11728927_at) / RFU KRT8 (11758188_x_at) / Fold change /veh KRT8 (11758188_x_at) / RFU NKD1 (11759106_at) / Fold change /veh NKD1 (11759106_at) / RFU SRD5A1 (11742802_a_at) / Fold change /veh SRD5A1 (11742802_a_at) / RFU TPSAB1 /// TPSB2 (11721975_s_at) / Fold change /veh TPSAB1 /// TPSB2 (11721975_s_at) / RFU GSTM3 (11746129_a_at) / Fold change /veh GSTM3 (11746129_a_at) / RFU IL23R (11737362_x_at) / Fold change /veh IL23R (11737362_x_at) / RFU TMEM51 (11727254_a_at) / Fold change /veh TMEM51 (11727254_a_at) / RFU PIWIL2 (11732686_x_at) / Fold change /veh PIWIL2 (11732686_x_at) / RFU ORM1 (11744905_x_at) / Fold change /veh ORM1 (11744905_x_at) / RFU CCDC152 (11743942_at) / Fold change /veh CCDC152 (11743942_at) / RFU ECM1 (11717891_a_at) / Fold change /veh ECM1 (11717891_a_at) / RFU IL23R (11748794_a_at) / Fold change /veh IL23R (11748794_a_at) / RFU TNFAIP8L3 (11732012_x_at) / Fold change /veh TNFAIP8L3 (11732012_x_at) / RFU MBOAT4 (11741988_at) / Fold change /veh MBOAT4 (11741988_at) / RFU 11764193_at / Fold change /veh 11764193_at / RFU TMEM53 (11763286_at) / Fold change /veh TMEM53 (11763286_at) / RFU MAGEB2 (11727129_at) / Fold change /veh MAGEB2 (11727129_at) / RFU TMEM200A (11744735_a_at) / Fold change /veh TMEM200A (11744735_a_at) / RFU CCDC152 (11751479_a_at) / Fold change /veh CCDC152 (11751479_a_at) / RFU FAM211A (11726209_a_at) / Fold change /veh FAM211A (11726209_a_at) / RFU RGS16 (11746705_a_at) / Fold change /veh RGS16 (11746705_a_at) / RFU VCAN (11755009_s_at) / Fold change /veh VCAN (11755009_s_at) / RFU RHOB (11743442_s_at) / Fold change /veh RHOB (11743442_s_at) / RFU RGS16 (11720943_a_at) / Fold change /veh RGS16 (11720943_a_at) / RFU RGS16 (11720944_at) / Fold change /veh RGS16 (11720944_at) / RFU, VPS4B / Fold change vs veh, VPS4B / RFU, CREB1 / Fold change vs veh, CREB1 / RFU, DNAJC13 / Fold change vs veh, DNAJC13 / RFU, GNAQ / Fold change vs veh, GNAQ / RFU, CDK5R1 / Fold change vs veh, CDK5R1 / RFU, ZRANB3 / Fold change vs veh, ZRANB3 / RFU, CUL4A / Fold change vs veh, CUL4A / RFU, CCNY / Fold change vs veh, CCNY / RFU, UFL1 / Fold change vs veh, UFL1 / RFU, COG3 / Fold change vs veh, COG3 / RFU, DIAPH2 / Fold change vs veh, DIAPH2 / RFU, SKA2 / Fold change vs veh, SKA2 / RFU, AFF3 / Fold change vs veh, AFF3 / RFU, LMF1 / Fold change vs veh, LMF1 / RFU, IPO11 / Fold change vs veh, IPO11 / RFU, DFFB / Fold change vs veh, DFFB / RFU, FOXP1 / Fold change vs veh, FOXP1 / RFU, CARD8 / Fold change vs veh, CARD8 / RFU, STRN3 / Fold change vs veh, STRN3 / RFU, ADK / Fold change vs veh, ADK / RFU, RASSF2 / Fold change vs veh, RASSF2 / RFU, WIPF1 / Fold change vs veh, WIPF1 / RFU, LARP1B / Fold change vs veh, LARP1B / RFU, RASA1 / Fold change vs veh, RASA1 / RFU, RB1 / Fold change vs veh, RB1 / RFU, PPFIA1 / Fold change vs veh, PPFIA1 / RFU, MAT2A / Fold change vs veh, MAT2A / RFU, CCT5 / Fold change vs veh, CCT5 / RFU, WDR92 / Fold change vs veh, WDR92 / RFU, CUX1 / Fold change vs veh, CUX1 / RFU, TTC7A / Fold change vs veh, TTC7A / RFU, TMEM135 / Fold change vs veh, TMEM135 / RFU, DEPTOR / Fold change vs veh, DEPTOR / RFU, CPM / Fold change vs veh, CPM / RFU, DNAJB6 / Fold change vs veh, DNAJB6 / RFU, CACNA2D3 / Fold change vs veh, CACNA2D3 / RFU, DTX4 / Fold change vs veh, DTX4 / RFU, TFCP2 / Fold change vs veh, TFCP2 / RFU, GMCL1 /// GMCL1P1 / Fold change vs veh, GMCL1 /// GMCL1P1 / RFU, AEBP2 / Fold change vs veh, AEBP2 / RFU, SNHG1 /// SNORD22 /// SNORD25 /// SNORD26 /// SNORD27 /// SNORD28 /// SNORD29 /// SNORD31 / Fold change vs veh, SNHG1 /// SNORD22 /// SNORD25 /// SNORD26 /// SNORD27 /// SNORD28 /// SNORD29 /// SNORD31 / Fold change (Aza/veh), C12orf56 (ProbeSet 11735607_a_at) / Fold change (ACY-1035/veh), C12orf56 (ProbeSet 11735607_a_at) / Fold change (Aza/veh), FGFR1OP (ProbeSet 11751329_s_at) / Fold change (ACY-1035/veh), FGFR1OP (ProbeSet 11751329_s_at) / Fold change (Aza/veh), VPS36 (ProbeSet 11739960_a_at) / Fold change (ACY-1035/veh), VPS36 (ProbeSet 11739960_a_at) / RFU SYPL1 (11715823_x_at) / Fold change /veh SYPL1 (11715823_x_at) / RFU IGFBP7 (11715501_s_at) / Fold change /veh IGFBP7 (11715501_s_at) / RFU REEP3 (11722064_at) / Fold change /veh REEP3 (11722064_at) / RFU IGLL1 (11728026_x_at) / Fold change /veh IGLL1 (11728026_x_at): dose or concentration left out as unconfirmed
Conditions: MV-4-11 cells, 48 hours

Nc1ccc(-c2cccs2)cc1NC(=O)c1ccc2c(c1)cc(C1CC1)n2CCN1CCOCC1 [ACY-1035]
Fold change /veh IL23R (11748794_a_at): 0.98
